The assay has as its system subjects with cellulite. Put plainly: Superoxide dismutase administered to subjects with cellulite; subcutaneous fat measured after 90 days. It counts as in vivo, human. The text has this:
Similarly, there was a 23% reduction in subcutaneous fat compared with the placebo after 90 days at the femoral fold.

The source of these data is patent US20220062147A1, “Skin Care Formulation for Treatment of Cellulite” (BOTTLED SCIENCE LIMITED, priority 2020, published 2022).

For the substance superoxide dismutase, the “reduction in subcutaneous fat compared with the placebo at the femoral fold” value (after 90 days, femoral fold, vs placebo) is listed as 23%. Moreover, the “reduction in subcutaneous fat compared with the placebo at the gluteal fold” value (after 90 days, gluteal fold, vs placebo) is given as 28%. Moreover, the “subcutaneous fat at the femoral fold (FIG. 1, right-hand chart)” value (clinical trials, femoral fold, result in words) was “significantly reduces”. The “subcutaneous fat at the gluteal fold (FIG. 1, left-hand chart)” value (clinical trials, gluteal fold, result in words) is “significantly reduces”.
